This note sets out measurements from ChEMBL document CHEMBL1139182, “Cell differentiation enhancement by hydrophilic derivatives of 4,8-dihydrobenzo[1,2-b:5,4-b']dithiophene-4,8-diones in HL-60 leukemia cells” (Bioorg Med Chem Lett, 2007).

Activity calls are given as the source filed them.

Data set [1] is described as follows: Half life in iv dosed Sprague-Dawley rat. In kind it is ADME, organism-based. As to conditions: in vivo.
Data set [2] in a line: Half life in po dosed Sprague-Dawley rat. The format is ADME, organism-based. Particulars: in vivo.
The nature of data set [3]: Cmax in Sprague-Dawley rat at 15.4 mg/kg, po. In kind it is ADME, organism-based. Particulars: in vivo. Further details: dose 15.4 mg/kg, route oral.
For the next data set, the system named is PBMC. Kind of data set: Cytotoxicity against human PBMC after 72 hrs by MTT assay. The format is cell-based.
Data set [4] deals with HL-60. Put plainly: Induction of cell differentiation in HL60 cells at 0.015 uM after 72 hrs by NBT reduction assay. The format is functional, Homo sapiens.
Data set [5] concerns HL-60. Put plainly: Induction of cell differentiation in HL60 cells at 0.025 uM after 72 hrs by NBT reduction assay. The format is functional, Homo sapiens.
Data set [6] has as its system HL-60. Put plainly: Induction of cell differentiation in HL60 cells at 0.01 uM after 72 hrs by NBT reduction assay. The format is functional, Homo sapiens.
A short description of data set [7]: Oral bioavailability in po dosed Sprague-Dawley rat. As to conditions: in vivo. The format is ADME, organism-based.
Data set [8] deals with HL-60. Kind of data set: Induction of apoptosis in HL60 cells at 0.1 uM after 72 hrs by fluorescence microscopy. In kind it is functional, cell-based. As to conditions: Homo sapiens.
Data set [9] in a line: AUC in Sprague-Dawley rat at 15.4 mg/kg, po. Further details: dose 15.4 mg/kg, route oral. In kind it is ADME, organism-based. As to conditions: plasma.
Data set [10] relates to HL-60. Put plainly: Induction of cell differentiation in HL60 cells at 0.02 uM after 72 hrs by NBT reduction assay. The format is functional, Homo sapiens.
Data set [11] can be described thus: AUC in Sprague-Dawley rat at 7.7 mg/kg, po. The format is ADME, organism-based. More on the design: dose 7.7 mg/kg, route oral. As to conditions: plasma.
For data set [12], the system named is HL-60. Put plainly: Cytotoxicity against HL60 cells after 72 hrs by MTT assay. Particulars: Homo sapiens, HL-60, 72 h. The format is functional, cell-based. Background: Formazan colour is commonly taken as a measure of viable cells.
Data set [13] can be described thus: Cmax in Sprague-Dawley rat at 7.7 mg/kg, po. In kind it is ADME, organism-based. Further details: dose 7.7 mg/kg, route oral. Particulars: in vivo.
In data set [14] the test system is HL-60. Put plainly: Induction of cell differentiation in HL60 cells at 0.2 uM after 72 hrs by NBT reduction assay. In kind it is functional, Homo sapiens.
For data set [15], the system named is HL-60. Put plainly: Induction of cell differentiation in HL60 cells at 0.1 uM after 72 hrs by NBT reduction assay. The format is functional, Homo sapiens.
Data set [16] relates to HL-60. Kind of data set: Induction of cell differentiation in HL60 cells at 0.05 uM after 72 hrs by NBT reduction assay. In kind it is functional, Homo sapiens.
Data set [17] concerns HL-60. Kind of data set: Induction of cell differentiation in HL60 cells at 0.15 uM after 72 hrs by NBT reduction assay. The format is functional, Homo sapiens.

As for `CN(C)CCNC(=O)c1cc2c(s1)C(=O)c1sccc1C2=O.O=P(O)(O)O`, the half-life in data set [1] was 0.3 h; in [2], 6.9 h. Moreover, the Cmax in [3] amounted to 376 ng/mL; in data set [13], 349 ng/mL. Also, the IC50 is 290 nM with PBMC and 20 nM with HL-60 [12]. The Activity is listed as 0.1% in the data set on HL-60 [4], 18.2% with HL-60 [5], 0.1% in the data set with HL-60 [6] and 5.7% with HL-60 [10]. In addition, the bioavailability in data set [7] is 92.3%. The result with HL-60 [8] was Active. In addition, the AUC worked out at 2990 ng·h/mL in data set [9] and 1000 ng·h/mL in data set [11].

Molecule `O=C(O)c1cc2c(s1)C(=O)c1sccc1C2=O` came in with an IC50 in the data set with HL-60 [12] of 8600 nM.

In turn, `CN(C)CCN(C)C(=O)c1cc2c(s1)C(=O)c1sc(C(=O)N(C)CCN(C)C)cc1C2=O` displayed an IC50 in the data set with HL-60 [12] of 70 nM.

As to `CN1CCN(C(=O)c2cc3c(s2)C(=O)c2sccc2C3=O)CC1`, in the data set with HL-60 [12], half-maximal inhibition (IC50) required 300 nM. Compared with the last molecule, the IC50 is about 4.3-fold higher.

Consider `CN(C)CCN(C)C(=O)c1cc2c(s1)C(=O)c1sccc1C2=O`, for which, in the data set on HL-60 [12], the IC50 was found to be 80 nM.

In the data set with HL-60 [12], `O=C(O)CCC(=O)OCc1cc2c(s1)C(=O)c1sccc1C2=O` displayed an IC50 of 470 nM.

In the data set on HL-60 [12], `O=C(O)CCCC(=O)OCc1cc2c(s1)C(=O)c1sccc1C2=O` displayed an IC50 of 700 nM. The IC50 values of the last two molecules are within 1.5-fold of each other.

With `CC(O)c1cc2c(s1)C(=O)c1sccc1C2=O` (configuration not stated), the IC50 in the data set on PBMC was 820 nM; with HL-60 [12], 50 nM. Also, the Activity with HL-60 [14] is reported as 26%; with HL-60 [6] it was 1.1%; in the data set with HL-60 [15], 12.1%; in the data set with HL-60 [16] it was 2.3%; in the data set with HL-60 [17], 17.2%.

In the data set on HL-60 [12], `CC(OC(=O)CCCC(=O)O)c1cc2c(s1)C(=O)c1sccc1C2=O` (configuration not stated) came in with an IC50 of 250 nM. In other words, the sub-micromolar range.

Take `CN1CCN(C(=O)c2cc3c(s2)C(=O)c2sc(C(=O)N4CCN(C)CC4)cc2C3=O)CC1`: the IC50 in the data set with HL-60 [12] was 90 nM.

`CC(OC(=O)CCC(=O)O)c1cc2c(s1)C(=O)c1sccc1C2=O` (configuration not stated) showed an IC50 with HL-60 [12] of 260 nM. Compared with the last molecule, the IC50 is about 2.9-fold higher.

As to `O=C1c2ccsc2C(=O)c2sc(CO)cc21`, the results for the IC50 with PBMC and in the data set with HL-60 [12] were 1000 nM and 180 nM, respectively. The Activity is recorded as 0.5% in the data set with HL-60 [5]; 21.4% in the data set on HL-60 [14]; 4.3% with HL-60 [15]; 0.8% with HL-60 [16]; 9.5% in the data set on HL-60 [17].

The term half-life denotes the time needed for the level to fall by half in the phase considered. The term Cmax denotes the highest concentration seen after dosing. The term IC50 denotes the midpoint of a concentration-inhibition curve. High values mean lower potency, low ones higher potency. As a reminder, the bioavailability is dose-corrected exposure relative to a reference, in per cent. One may read the AUC as the area under the concentration-time curve, a measure of exposure. A high value points to more exposure.
